# Reference: patent US20150141485A1, “PROGNOSIS AND TREATMENT OF LUNG CANCER USING miRNA-135b” (NATIONAL CHENG KUNG UNIVERSITY, priority 2013, published 2015)
# B1: miR-135b sponge: miR-135-specific sponge carrying seven repeats of the miR-135b binding site (SEQ ID NO:12) (nucleic acid)
# DNA: GTCGACTCACATAGGAACTTAAGCCATAATGCTCACATAGGAACTTAAGCCATAATGCTCACATAGGAACTTAAGCCATAATGCTCACATAGGAACTTAAGCCATAATGCTCACATAGGAACTTAAGCCATAATGCTCACATAGGAACTTAAGCCATAATGCTCACATAGGAACTTAAGCCATAATGTCGAC
# Legend:
# miR-135b expression = test: Real-time RT-PCR of miR-135b after DNA demethylation; assay type: cell-based; details: cancer cells treated 4 days
# Method: Cells were treated with different doses of 5-aza-2′-CdR (5′-aza) for 4 days, and total RNA was harvested for real time RT-PCR. Data are expressed as the mean±s.d.
# (§1) Cells were seeded at concentration of 1×10^5 for treatment with 5-aza-2′-CdR (R&D Systems INC., MN, USA) for 96 hours. For TNF-α (PeproTech, Rocky Hill. N.J.) stimulation, 1×10^6 cells were seeded for 24 hours and treated with different amounts of TNF-α for 6 hours.
# (§2) Total RNA was isolated using TRIZOL reagent (Invitrogen, Carisbad, Calif.) according to the standard protocol. The mature miR-135b and endogenous control U6B were analyzed using TaqMan Micro RNA Assay (Applied Biosystems, Foster City, Calif.). Briefly, total RNA was reverse-transcribed via SuperScipt-III Reverse Transcriptase (Invitrogen, Carlsbad, Calif.). The cDNA was amplied with TaqMan 2× Universal Master Mix (Applied Biosystems), and miRNA-specific real-time PCR was performed using an ABI 7500 real-time PCR system.
# LEMD1 mRNA = LEMD1 mRNA expression after DNA demethylation; assay type: cell-based; details: lung cancer cell lines
# Method: as §1
# CL1-5-F4 cells [1] = test: Real-time RT-PCR of miR-135b; assay type: cell-based, human; details: 6 hours
# Method: CL1-5-F4 cells were treated with different concentrations of TNF-α with or without BAY-117082 (5 or 10 μM) for 6 hours. Total RNA was harvested, and miR-135b expression was analyzed and analysis by real-time RT-PCR. Mean±s.d. is shown, *P<0.05; **P<0.005 by Student's t-test.
# as §1, §2
# [2] = test system: NF-κB binding site within the miR-135b promoter; test: Chromatin immunoprecipitation (ChIP) with anti-p65; assay type: cell-based; details: 6 hours stimulation
# Method: The cells were treated with indicated amounts of 5-aza-2′-CdR (upper panel) for 4 days or TNF-α (lower panel) for 6 hours before being subjected to chromatin immunoprecipitation (ChIP) with anti-p65 antibody and specific primers.
# CL1-0 and H1299 cells were fixed with 1% formaldehyde and blocked by 125 mM glycine. The cells were resuspended in cell lysis buffer (5 mM HEPES, 85 mM KCl, 0.5% Triton X-100, 1 mM DTT, 1 mM PMSF, pH 8.0), followed by nucleic lysis buffer (50 mMTris-HCl, 10 mM EDTA, 1% SDS, 1 mM DTT, and protease inhibitor (Roche Applied Science, Mannheim, Germany)). The cell lysate was sonicated and clarified by centrifugation. The supernatant was diluted with protein G beads at 4° C. to pre-clear the solution Immunoprecipitation with anti-RelA (Abcam, Cambridge, UK) was performed at 4° C. overnight. DNA-protein complexes were than incubated with protein G agarose beads at 4° C. with constant rotation for 2 hours. Following immunoprecipitation, the beads were washed with a low-salt wash buffer, a high-salt wash buffer, a LiCl wash buffer, and, finally, a TE buffer. The immunoprecipitated complexes were eluted in a buffer containing 10 mM Tris pH 8.0, 300 mM NaCl. 5 mM EDTA, and 0.5% SDS at room temperature. The samples were then treated with proteinase K for 1 hour, followed by RNAse A. Next, the DNA was purified by phenol/chloroform extraction. […]
# H1299 cells = test: Real-time RT-PCR of miR-135b; assay type: cell-based; details: single treatment
# Method: Cells were treated with or without 5-aza-2′-CdR for 4 days and re-seeded for TNF-α stimulation for 6 hours. Total RNA was harvested, and miR-135b expression was analyzed. Mean±s.d. is shown, *P<0.05; **P<0.005 by Student's t-test.
# as §1, §2
# CL1-5-F4 cells [3] = test: Transwell invasion assay; assay type: cell-based, human; details: CL1-5-F4 cells stably expressing sponge vs control sponge
# Method: CL1-5-F4 and Hop-62 cells were transfected with scramble (NC) of miR-135b-specific antagomir (Antago-135b) for 48 hours and the subjected to migration assays (FIG. 2d) and invasion assays (FIG. 2e) as described above. *P<0.05;**P<0.005 by Student's t-test.
# CL1-5-F4 cells transfected with plasmids expressing either control or miR-135b sponges were analyzed using in vitro invasion assay. The average number of invading cells obtained in the transwell invasion assay is presented (n=3).
# Transwell chambers ([…], BD Falcon, Franklin Lakes, N.J.) were coated with the appropriate amount of Matrigel (BD Biosciences, San Jose, Calif.). Next, 2.5×10^4 cells were suspended in NuSerum-containing media (Gibco BRL, Grand Island N.Y., USA), seeded in the chamber and cultured, Cells that invaded the chamber from top to bottom were fixed with methanol and stained with a solution of propidium iodine (Sigma-Aldrich, St. Louis, Mo.). The propidiumiodine-positive signal was quantified using Analytical Imaging Station software package. Each sample was assayed in triplicate.
# CL1-5-F4 cells [4] = test: Lung metastasis after intravenous injection of sponge-expressing cells; assay type: in vivo; details: SCID mice, i.v. sponge-producing CL1-5-F4 cells, 6 weeks, P=0.0126
# Source text: CL-5-F4 cells stably expressing control sponge or miR-135b sponge were intravenously injected into SCID mice (n=8). Representative pictures of murine whole lung (left) and H&E staining of lung sections (right) are presented.
# Lung tumor nests in each group were examined and counted using a microscope (n=8); Mean±s.e.m. is shown,*P<0.05 by Student's t-test.
# Animals were housed in a specific-pathgen-free environment in the animal facility of the Institute of Biomedical Sciences, Academia Sinica. All experimental procedures were in compliance with the Academia Sinica IACUC and Council of Agriculture Guidebook for the Care and Use of Laboratory Animals. For intravenous injections of the tumor cells, 1×10^6 cells were suspended in 0.1 mL of phosphate-buffered saline (PBS) and injected into lateral tail vein of SCID mice (10 mice per group). […] For the subcutaneous tumor assay, 1×10^6 CL1-0 cells or 2×10^5 H441 cells were subcutaneously injected in 0.1 mL of PBS into male nude mice (n=8 per group) and allowed to grow for 35 days to reach a volume of 50-200 mm^3 Control antagomir (Scramble) or anti-miR-135b antagomir (antago-135) was intravenously injected at a concentration of 10 μM in 0.1 mL of PBS 4 days after the cells were implanted. An example of a miR-135b antagomir is 5′mU(*)mC(*)mAmCmAmUmAmG-mGmAmAmUmGmAmAmAmAmGmCmC(*)mA(*)mU(*)mA(*)(3′-Ch1)3′ (SEQ ID NO:8). […]
molecule,measurement,setting,value
Nc1ncn([C@H]2C[C@H](O)[C@@H](CO)O2)c(=O)n1 [5-aza-2′CdR],miR-135b expression levels,miR-135b expression,restored
same,LEMD1 mRNA expression,LEMD1 mRNA,restored LEND1 mRNA expression in a dose-dependent manner
Cc1ccc(S(=O)(=O)/C=C/C#N)cc1 [BAY-117082],TNF-α-stimulated miR-135b expression,CL1-5-F4 cells [1]; 5 or 10 μM,negated
TNF-α,association of NF-κB with the miR-135b promoter,[2],confirmed
same,miR-135b expression,H1299 cells,induced miR-135b expression was also observed
same,miR-135b expression,CL1-5-F4 cells [1],induced miR-135b expression was also observed
B1,invasiveness in transwell invasion assay,CL1-5-F4 cells [3],diminished the invasive
same,number of tumor nodules developed in the mouse lungs,CL1-5-F4 cells [4],significantly reduced
